Measurements from patent US20250304620A1, “ANTIMICROBIAL PEPTIDE AND APPLICATION THEREOF” (priority 2023, published 2025).
Values after ≈ are worked out from the molar mass of the structure shown. Marks after values point to notes of the source that are not given here. Non-standard residues stand in square brackets, D forms with d. Residues, ends and D or L forms follow the SMILES beside them. d2Nal = N[C@H](Cc1ccc2ccccc2c1)C(=O)O

Key:
[1] = system: Staphylococcus aureus (NRS 384); assay: microbe, parasite or virus in culture; format: cell-based; settings: NRS 384
Summary of the method: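 MICs were read against S. aureus strain NRS 384 using twofold serial dilution by CLSI microdilution rules. Levofloxacin and Cbf-K16 were the reference controls, and the test was repeated 5 times in parallel.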

[2] = system: Bacillus subtilis ATCC 6633; format: cell-based
Excerpt: (§1) According to the Standards of Clinical and Laboratory Standards Institute (CLSI) of the USA for antimicrobial drug susceptibility test operation standards, the micronutrient serial twofold dilution method was used further determine MICs of 30 AMPs (S/N: LV-1 to LV-30) 10 clinically common sensitive strains and 6 fungi in clinical practice. The experiment was repeated 5 times in parallel.

[3] = system: Candida albicans ATCC MYA-2876; format: cell-based
Excerpt: as §1

[4] = system: Candida glabrata ATCC 15126; format: cell-based
Excerpt: as §1

Candida krusei ATCC 6258 = format: cell-based
Excerpt: as §1

[5] = system: Candida tropicalis ATCC 750; format: cell-based
Excerpt: as §1

Candida utilis ATCC 9950 = format: cell-based
Excerpt: as §1

[6] = system: Corynebacterium ATCC 7715; format: cell-based
Excerpt: as §1

Enterococcus ATCC 29212 = format: cell-based
Excerpt: as §1

[7] = system: Escherichia coli ATCC 25922; format: cell-based
Excerpt: as §1

[8] = system: Klebsiella pneumoniae ATCC 700603; format: cell-based
Excerpt: as §1

[9] = system: Pseudomonas aeruginosa ATCC 27853; format: cell-based
Excerpt: as §1

[10] = system: Salmonella typhimurium ATCC 14028; format: cell-based
Excerpt: as §1

[11] = system: Serratia marcescens ATCC 29021; format: cell-based
Excerpt: as §1

[12] = system: Staphylococcus aureus ATCC 25923; format: cell-based
Excerpt: as §1

[13] = system: Trichophyton ATCC MYA-4438; format: cell-based
Excerpt: as §1

[14] = system: Shigella flexneri ATCC 12022; assay: MIC against clinically common bacterial strain; format: cell-based
Excerpt: as §1

[15] = system: Methicillin-resistant Staphylococcus aureus (MRSA); format: cell-based; settings: Methicillin-resistant
Excerpt: (§2) According to the Standards of Clinical and Laboratory Standards Institute (CLSI) of the USA for antimicrobial drug susceptibility test operation standards, the micronutrient serial twofold dilution method was used further determine MICs of the antimicrobial peptides LV-1 to LV-30 against 5 clinically common drug-resistant bacterial strains. The experiment was repeated 5 times in parallel. […] The tested drug-resistant strains included Methicillin-resistant Staphylococcus aureus (MRSA), carbapenem-resistant Escherichia coli (CREC), vancomycin-resistant Enterococcus (VRE), carbapenem-resistant Pseudomonas aeruginosa (CRPA), and carbapenem-resistant Klebsiella pneumoniae (CRKP).

[16] = system: carbapenem-resistant Escherichia coli (CREC); format: cell-based; settings: carbapenem-resistant (CREC)
Excerpt: as §2

[17] = system: carbapenem-resistant Klebsiella pneumoniae (CRKP); format: cell-based; settings: carbapenem-resistant (CRKP)
Excerpt: as §2

[18] = system: carbapenem-resistant Pseudomonas aeruginosa (CRPA); format: cell-based; settings: carbapenem-resistant (CRPA)
Excerpt: as §2

[19] = system: vancomycin-resistant Enterococcus (VRE); format: cell-based
Excerpt: as §2

[20] = system: Staphylococcus aureus (NRS 384); settings: NRS 384, 3 h
Method: Trypsin (250 U/mg, pH=8.0) and AMPs (LV-1 to LV-30) were mixed in a ratio of 1:10 (w/w) and added to a reaction buffer (0.2 M sodium phosphate, 1 mM CaCl2), pH 7.5), and then incubated at 37° C. for 3 h.

[21] = system: Pseudomonas aeruginosa ATCC 27853; assay: Injectable formulations on mice infected with peritonitis; format: in vivo, ICR mice; settings: twice a day for 3 days; for Number of mice that died on each day after infection: day 1 / Number of mice that died on each day after infection: day 2 / Number of mice that died on each day after infection: day 3 / Number of mice that died on each day after infection: day 4 / Number of mice that died on each day after infection: day 5 / Average survival times (Days): n = 10; for Average survival times (Days): observed for 14 d; for survival time of mice infected with Pseudomonas aeruginosa: tail vein, observed 14 d
Summary of the method: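 Survival readout: deaths and survival time tracked for 14 d. Treatment was tail-vein injection by body weight, twice a day for 3 consecutive days, starting right after intraperitoneal challenge with 0.2 mL of 1×10^9 CFU/mL P. aeruginosa ATCC 27853 in male and female ICR mice.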

[22] = Serum stability assay (residual level by RP-HPLC); settings: human

CC(=O)N[C@H](CCCNC(=N)N)C(=O)N[C@H](CCCNC(=N)N)C(=O)N[C@H](CC(C)C)C(=O)N[C@H](CC(C)C)C(=O)N[C@H](Cc1ccc2ccccc2c1)C(=O)N[C@H](CCCNC(=N)N)C(=O)N[C@H](CC(C)C)C(=O)N[C@H](CCCNC(=N)N)C(=O)N[C@H](Cc1ccc2ccccc2c1)C(=O)N[C@H](CCCNC(=N)N)C(=O)N[C@H](CCCNC(=N)N)C(N)=O [LV-1] (Ac-[dR][dR][dL][dL][d2Nal][dR][dL][dR][d2Nal][dR][dR]-NH2)
MIC against Staphylococcus aureus (NRS 384) [1]: 1 µg/mL (≈ 0.578 µM) | MIC Bacillus subtilis ATCC 6633 [2]: 4 µg/mL (≈ 2.31 µM) | MIC Candida albicans ATCC MYA-2876 [3]: 8 µg/mL (≈ 4.62 µM) | MIC Candida glabrata ATCC 15126 [4]: 8 µg/mL (≈ 4.62 µM) | MIC Candida krusei ATCC 6258 (Candida krusei ATCC 6258): 4 µg/mL (≈ 2.31 µM) | MIC Candida tropicalis ATCC 750 [5]: 4 µg/mL (≈ 2.31 µM) | MIC Candida utilis ATCC 9950 (Candida utilis ATCC 9950): 8 µg/mL (≈ 4.62 µM) | MIC Corynebacterium ATCC 7715 [6]: 2 µg/mL (≈ 1.16 µM) | MIC Enterococcus ATCC 29212 (Enterococcus ATCC 29212): 2 µg/mL (≈ 1.16 µM) | MIC Escherichia coli ATCC 25922 [7]: 1 µg/mL (≈ 0.578 µM) | MIC Klebsiella pneumoniae ATCC 700603 [8]: 4 µg/mL (≈ 2.31 µM) | MIC Pseudomonas aeruginosa ATCC 27853 [9]: 1 µg/mL (≈ 0.578 µM) | MIC Salmonella typhimurium ATCC 14028 [10]: 2 µg/mL (≈ 1.16 µM) | MIC Serratia marcescens ATCC 29021 [11]: 2 µg/mL (≈ 1.16 µM) | MIC Staphylococcus aureus ATCC 25923 [12]: 1 µg/mL (≈ 0.578 µM) | MIC Trichophyton ATCC MYA-4438 [13]: 8 µg/mL (≈ 4.62 µM) | MIC Shigella flexneri ATCC 12022 [14]: 4 µg/mL (≈ 2.31 µM) | MIC MRSA [15]: 4 µg/mL (≈ 2.31 µM) | MIC CREC [16]: 2 µg/mL (≈ 1.16 µM) | MIC CRKP [17]: 2 µg/mL (≈ 1.16 µM) | MIC CRPA [18]: 4 µg/mL (≈ 2.31 µM) | MIC VRE [19]: 4 µg/mL (≈ 2.31 µM) | Trypsin MIC [20]: 1 µg/mL | Number of mice that died on each day after infection: day 1 ([21]; 0.2 mg/kg via tail vein): 1 Mouse | Number of mice that died on each day after infection: day 2 ([21]; 0.2 mg/kg via tail vein): 2 Mouse | Number of mice that died on each day after infection: day 3 ([21]; 0.2 mg/kg via tail vein): 1 Mouse | Number of mice that died on each day after infection: day 4 ([21]; 0.2 mg/kg via tail vein): 1 Mouse | Number of mice that died on each day after infection: day 5 ([21]; 0.2 mg/kg via tail vein): 1 Mouse | Average survival times (Days) ([21]; 0.2 mg/kg via tail vein): 7.3** Days | Number of mice that died on each day after infection: day 1 ([21]; 1 mg/kg via tail vein): 0 Mouse | Number of mice that died on each day after infection: day 2 ([21]; 1 mg/kg via tail vein): 1 Mouse | Number of mice that died on each day after infection: day 3 ([21]; 1 mg/kg via tail vein): 1 Mouse | Number of mice that died on each day after infection: day 4 ([21]; 1 mg/kg via tail vein): 1 Mouse | Number of mice that died on each day after infection: day 5 ([21]; 1 mg/kg via tail vein): 0 Mouse | Average survival times (Days) ([21]; 1 mg/kg via tail vein): 10.7**** Days | Number of mice that died on each day after infection: day 1 ([21]; 5 mg/kg via tail vein): 2 Mouse | Number of mice that died on each day after infection: day 2 ([21]; 5 mg/kg via tail vein): 1 Mouse | Number of mice that died on each day after infection: day 3 ([21]; 5 mg/kg via tail vein): 1 Mouse | Number of mice that died on each day after infection: day 4 ([21]; 5 mg/kg via tail vein): 0 Mouse | Number of mice that died on each day after infection: day 5 ([21]; 5 mg/kg via tail vein): 0 Mouse | Average survival times (Days) ([21]; 5 mg/kg via tail vein): 9.1** Days | survival time of mice infected with Pseudomonas aeruginosa [21]: superior to those of the Levofloxacin group | remaining at 12 h, 0.91 mg/mL [22]: 98.5%

CC(=O)N[C@H](CCCNC(=N)N)C(=O)N[C@H](CCCCN)C(=O)N[C@H](CC(C)C)C(=O)N[C@H](CC(C)C)C(=O)N[C@H](Cc1ccccc1)C(=O)N[C@H](CCCNC(=N)N)C(=O)N[C@H](CC(C)C)C(=O)N[C@H](CCCCN)C(=O)N[C@H](Cc1ccccc1)C(=O)N[C@H](CCCNC(=N)N)C(=O)N[C@H](CCCCN)C(N)=O [LV-2] (Ac-[dR][dK][dL][dL][dF][dR][dL][dK][dF][dR][dK]-NH2)
MIC against Staphylococcus aureus (NRS 384) [1]: 1 µg/mL (≈ 0.647 µM) | MIC Bacillus subtilis ATCC 6633 [2]: 2 µg/mL (≈ 1.29 µM) | MIC Candida albicans ATCC MYA-2876 [3]: 16 µg/mL (≈ 10.3 µM) | MIC Candida glabrata ATCC 15126 [4]: 16 µg/mL (≈ 10.3 µM) | MIC Candida krusei ATCC 6258 (Candida krusei ATCC 6258): 16 µg/mL (≈ 10.3 µM) | MIC Candida tropicalis ATCC 750 [5]: 16 µg/mL (≈ 10.3 µM) | MIC Candida utilis ATCC 9950 (Candida utilis ATCC 9950): 8 µg/mL (≈ 5.17 µM) | MIC Corynebacterium ATCC 7715 [6]: 4 µg/mL (≈ 2.59 µM) | MIC Enterococcus ATCC 29212 (Enterococcus ATCC 29212): 4 µg/mL (≈ 2.59 µM) | MIC Escherichia coli ATCC 25922 [7]: 1 µg/mL (≈ 0.647 µM) | MIC Klebsiella pneumoniae ATCC 700603 [8]: 4 µg/mL (≈ 2.59 µM) | MIC Pseudomonas aeruginosa ATCC 27853 [9]: 1 µg/mL (≈ 0.647 µM) | MIC Salmonella typhimurium ATCC 14028 [10]: 2 µg/mL (≈ 1.29 µM) | MIC Serratia marcescens ATCC 29021 [11]: 4 µg/mL (≈ 2.59 µM) | MIC Staphylococcus aureus ATCC 25923 [12]: 2 µg/mL (≈ 1.29 µM) | MIC Trichophyton ATCC MYA-4438 [13]: 8 µg/mL (≈ 5.17 µM) | MIC Shigella flexneri ATCC 12022 [14]: 2 µg/mL (≈ 1.29 µM) | MIC MRSA [15]: 2 µg/mL (≈ 1.29 µM) | MIC CREC [16]: 4 µg/mL (≈ 2.59 µM) | MIC CRKP [17]: 2 µg/mL (≈ 1.29 µM) | MIC CRPA [18]: 8 µg/mL (≈ 5.17 µM) | MIC VRE [19]: 2 µg/mL (≈ 1.29 µM) | Trypsin MIC [20]: 1 µg/mL | Number of mice that died on each day after infection: day 1 ([21]; 0.2 mg/kg via tail vein): 3 Mouse | Number of mice that died on each day after infection: day 2 ([21]; 0.2 mg/kg via tail vein): 1 Mouse | Number of mice that died on each day after infection: day 3 ([21]; 0.2 mg/kg via tail vein): 1 Mouse | Number of mice that died on each day after infection: day 4 ([21]; 0.2 mg/kg via tail vein): 0 Mouse | Number of mice that died on each day after infection: day 5 ([21]; 0.2 mg/kg via tail vein): 0 Mouse | Average survival times (Days) ([21]; 0.2 mg/kg via tail vein): 7.8** Days | Number of mice that died on each day after infection: day 1 ([21]; 1 mg/kg via tail vein): 0 Mouse | Number of mice that died on each day after infection: day 2 ([21]; 1 mg/kg via tail vein): 0 Mouse | Number of mice that died on each day after infection: day 3 ([21]; 1 mg/kg via tail vein): 1 Mouse | Number of mice that died on each day after infection: day 4 ([21]; 1 mg/kg via tail vein): 0 Mouse | Number of mice that died on each day after infection: day 5 ([21]; 1 mg/kg via tail vein): 1 Mouse | Average survival times (Days) ([21]; 1 mg/kg via tail vein): 12.0**** Days | Number of mice that died on each day after infection: day 1 ([21]; 5 mg/kg via tail vein): 1 Mouse | Number of mice that died on each day after infection: day 2 ([21]; 5 mg/kg via tail vein): 0 Mouse | Number of mice that died on each day after infection: day 3 ([21]; 5 mg/kg via tail vein): 1 Mouse | Number of mice that died on each day after infection: day 4 ([21]; 5 mg/kg via tail vein): 0 Mouse | Number of mice that died on each day after infection: day 5 ([21]; 5 mg/kg via tail vein): 0 Mouse | Average survival times (Days) ([21]; 5 mg/kg via tail vein): 11.6**** Days | survival time of mice infected with Pseudomonas aeruginosa [21]: superior to those of the Levofloxacin group | remaining at 12 h, 0.91 mg/mL [22]: 97.4%
